In brackets after ≈: the same amount, converted by molar mass.
Settings: buffer; pH 7.4; 200.0 µM

| SMILES | solubility kinetic [µg/mL] |
| --- | --- |
| O=C(Nc1ccccc1C(=O)Nc1ccc(Cl)cc1)c1cccnc1 | 0.6 (≈ 1.71 µM) |
| O=C(Cc1ccc(Cl)cc1)Nc1ccccn1 | > 37 |
| COc1ccc(Nc2nc(C)nc3c2oc2ccccc23)c(OC)c1 | < 0.2 |
| CCC1CO/C(=C(\C(=C(Cl)Cl)N2CCOCC2)[N+](=O)[O-])N1 (stereo not given) | > 50.7 |
| Cc1ccc(C(=O)Nc2ccc(CN3CCS(=O)(=O)CC3)cc2)cc1C | 42.7 (≈ 115 µM) |
| CC(=O)Nc1ccc2c(c1)C(=O)N(c1cccc3ccccc13)C2=O | 8.2 (≈ 24.8 µM) |
| NC(N)=NC1=NC(=O)C(Cc2ccccc2)S1 (stereo not given) | > 37.2 |
| CC1(C)Cc2ccccc2-c2nc(NCCCO)[nH]c(=O)c21 | 39.5 (≈ 132 µM) |
| COc1ccc(CNc2ncnc3sccc23)cc1OC | 20.2 (≈ 67 µM) |
| O=C(COC(=O)c1cccs1)NC1CCCC1 | 36.5 (≈ 144 µM) |
| COc1cc2c(cc1OC)C(c1cccc(Cl)c1)CC(=O)N2 (stereo not given) | 38 (≈ 120 µM) |
| CCOC(=O)c1ccoc1CN1CCN(S(=O)(=O)c2ccc(C)c(C)c2)CC1 | 32.8 (≈ 80.7 µM) |
| COc1ccccc1C(=O)C1CCCN(C(=O)Nc2ccccc2F)C1 (stereo not given) | > 53.5 |
| O=C(COC(=O)COc1ccccc1F)Nc1cccc(S(=O)(=O)N2CCCCC2)c1 | 47.8 (≈ 106 µM) |
| Cc1nc2c3cc(Cl)ccc3n(CCN3CCOCC3)c2s1 | 7.7 (≈ 22.9 µM) |
| Cn1c(SCC(=O)Nc2ccc3c(c2)OCCO3)nnc1-c1ccncc1 | > 57.5 |
| O=C(NCc1ccco1)/C(=C\c1ccccc1)NC(=O)c1ccccc1 | 17.2 (≈ 49.7 µM) |
| CCn1c(/C=C/c2ccc(O)c(O)c2)nc2ccccc2c1=O | 27 (≈ 87.6 µM) |
| O=C(c1ccco1)N1CCN(Cc2nc(Cc3ccccc3)no2)CC1 | 37.7 (≈ 107 µM) |
| CSC1=NCCN1C(=O)Cc1cccc2ccccc12 | 20.4 (≈ 71.7 µM) |
| Oc1ccc2ccccc2c1C=Nc1ccccc1 | < 0.5 |
| Clc1ccc2c(NCc3ccccc3)ccnc2c1 | 19 (≈ 70.7 µM) |
| Cc1oncc1-c1csc(-c2ccccc2Cl)n1 | 0.6 (≈ 2.17 µM) |
| Cc1cc(=O)[nH]c2c3ccccc3nn12 | > 29.9 |
| COc1cccc(C(=O)OCC(=O)c2[nH]c(C)c(C(C)=O)c2C)c1 | 2.1 (≈ 6.38 µM) |

| SMILES | solubility kinetic [µg/mL] |
| --- | --- |
| N#Cc1cc(S(=O)(=O)N2CCOCC2)ccc1N1CCOCC1 | > 50.6 |
| Cc1cc(OC(=O)c2ccc(C(C)(C)C)cc2)c([N+](=O)[O-])c(=O)[nH]1 | 46.4 (≈ 140 µM) |
| O=C(CN1C(=O)NC(CCc2ccccc2)C1=O)Nc1cccc(Br)c1 (stereo not given) | 5.2 (≈ 12.5 µM) |
| CC1CCCC(C)N1C(=O)COC(=O)CCC(=O)c1ccc(F)cc1 (stereo not given) | > 52.4 |
| CCCCN(C(=O)c1cc(-c2ccncc2)nc2ccccc12)c1c(N)n(CC(C)C)c(=O)[nH]c1=O | 10 (≈ 20.6 µM) |
| Cc1ccc2oc(=O)c3cc(C(=O)N4CCN(C)CC4)sc3c2c1 | 11.8 (≈ 34.5 µM) |
| O=C(Nc1ccc(NC(=O)c2ccccc2F)cc1)c1ccccc1F | < 0.4 |
| O=C(OCc1csc(-c2ccccc2)n1)c1ccc(O)cc1 | < 0.7 |
| CCCCCn1c(N)c(C(=O)NCc2cccs2)c2nc3ccccc3nc21 | 0.9 (≈ 2.29 µM) |
| CC1CCCC(NC(=O)CSc2cccc[n+]2[O-])C1C (stereo not given) | > 44.2 |
| COc1cccc(OC)c1C(=O)NCCOc1cc(C)cc(C)c1 | 28.3 (≈ 85.9 µM) |
| COC(=O)C(C)Oc1ccc(-c2nccc(-c3ccc(F)cc3)n2)cc1 (stereo not given) | 2.6 (≈ 7.38 µM) |
| CC(=O)OCCNc1cc(SC(C)C)c2nonc2c1[N+](=O)[O-] | 4.1 (≈ 12 µM) |
| O=C1OC(CCl)CN1Cc1ccc([N+](=O)[O-])cc1 (stereo not given) | > 40.6 |
| c1ccc(CCNc2ncnc3sccc23)nc1 | > 38.4 |
| Cc1ccc(NC(=O)CNC(C)c2ccccc2)cc1.Cl (stereo not given) | > 45.7 |
| O=C(COC(=O)c1ccc([N+](=O)[O-])o1)Nc1ccc2c(c1)OCO2 | 16.9 (≈ 50.6 µM) |
| COC(=O)Cc1ccc(NC(=S)NC2CC2)cc1 | > 39.7 |
| Cc1ccc2[nH]c(=O)c(CN(C(=O)c3cccc([N+](=O)[O-])c3)C(C)C)cc2c1 | 2.6 (≈ 6.85 µM) |
| CCC(Oc1ccc(C)cc1)C(=O)Nc1ccc2c(c1)n(C)c(=O)n2C (stereo not given) | > 53 |
| CSc1ncccc1C(=O)OCC(=O)Nc1ccc2c(c1)OCO2 | 2.7 (≈ 7.8 µM) |
| Cc1ccc(-c2csc3ncn(C(C)C(=O)O)c(=O)c23)cc1 (stereo not given) | > 47.2 |
| CCc1nnc(NC(=O)C2(C)COC(c3ccccc3)OC2)s1 (stereo not given) | > 50 |
| OCC1CCCCN1C(=S)Nc1ccc(Cl)cc1Cl (stereo not given) | > 47.9 |

Other lines, results leading:

| solubility kinetic [µg/mL] | SMILES |
| --- | --- |
| 8.1 (≈ 21.6 µM) | OC(CN1CCN(Cc2ccccc2)CC1)c1ccc(Br)cc1 (stereo not given) |
| > 46.8 | O=C(COc1ccccc1[N+](=O)[O-])N1CCCc2ccccc21 |
| 46.7 (≈ 144 µM) | OCC(CO)(CO)NC(=S)Nc1cc(Cl)cc(Cl)c1 |
| > 57.6 | O=C(O)c1cc(S(=O)(=O)NCC2COc3ccccc3O2)ccc1Cl (stereo not given) |
| 37.6 (≈ 149 µM) | COc1ccc(NC2SC(=O)N(C)C2=O)cc1 (stereo not given) |
| 42.1 (≈ 146 µM) | Cc1cc(C)nc(NC(=O)/C=C/c2ccc(Cl)cc2)n1 |
| 1.1 (≈ 4.12 µM) | Cc1cnc(NC(=O)Cc2ccccc2Cl)s1 |
| 23.6 (≈ 86.5 µM) | Cc1cc(C)nc(N(C#N)Cc2cccc(Cl)c2)n1 |
| 0.3 (≈ 0.983 µM) | OCCNc1nc(-c2ccccc2)nc2c1oc1ccccc12 |
| 1.1 (≈ 3.41 µM) | CN=C1S/C(=C\c2c(OC)cc(OC)cc2OC)C(=O)N1C |
| > 41.9 | COc1ccc(CCNC(=O)/C=C/C(=O)O)cc1OC |
| > 45.2 | OC(CNCc1ccc2c(c1)OCO2)COc1ccccc1 (stereo not given) |
| 55.4 (≈ 140 µM) | O=C(c1cc(-c2ccncc2)nc2ccccc12)N1CCN(c2ncccn2)CC1 |
| > 49.4 | CCc1ccc(C(=O)NNC(=O)[C@H](C)NC(=O)c2ccco2)cc1 |
| 15.4 (≈ 61.5 µM) | COc1nc(-c2ccccc2)c2cc(C)ccc2n1 |
| < 0.7 | Cc1cccc(NC(=O)COC(=O)c2cc3ccccc3oc2=O)c1 |
| < 0.2 | Cc1nc(Nc2ccccc2O)c2oc3ccccc3c2n1 |
| < 0.3 | O=C(Nc1nc2cc3c(cc2s1)OCO3)C1CCCCC1 |

| solubility kinetic [µg/mL] | SMILES |
| --- | --- |
| > 49.3 | CC(C)c1ccc(NC2CCCN(C(=O)c3ccsc3)C2)cc1 (stereo not given) |
| 6.9 (≈ 26.1 µM) | O=C(Nc1ccccc1F)NC1CCCCCCC1 |
| > 54.2 | CCCC(C(=O)O)n1c(O)c(C=C2N=c3ccccc3=N2)sc1=S (stereo not given) |
| > 42.5 | O=C(Nn1cnc2ccccc2c1=O)c1ccccc1F |
| 3.2 (≈ 9.06 µM) | Cc1[nH]c2ccccc2c1C(=O)CN1C(=O)C(=O)N(C2CCCC2)C1=O |
| 45.3 (≈ 139 µM) | COc1ccc(CN2CCC(C)CC2)cc1OCc1ccccc1 |
| > 45.5 | Cc1ccc(C(=O)NCC(=O)N2CCCN(C)CC2)cc1C |
| 34 (≈ 119 µM) | CCn1cnc2cc(NCc3ccc(Cl)cc3)ccc21 |
| 13.6 (≈ 44.8 µM) | Cc1ccc(SCC(=O)NCCc2ccc(F)cc2)cc1 |
| 7.1 (≈ 30.4 µM) | Fc1ccc(SCCc2ccccn2)cc1 |
| > 41 | CC1CCN(S(=O)(=O)c2c[nH]c(=O)[nH]c2=O)CC1 |
| 18.2 (≈ 53.3 µM) | Cc1cccc(C)c1NC(=O)CNC(=O)Cc1ccccc1[N+](=O)[O-] |
| 0.9 (≈ 2.79 µM) | CCOc1ccccc1NC(=O)c1nc(-c2ccccc2)oc1C |
| > 20.4 | NC(=O)c1ccccc1N |
| 3.1 (≈ 10.2 µM) | CCCn1c(=O)c2[nH]c(C3CCCC3)nc2n(CCC)c1=O |
| 0.3 (≈ 0.957 µM) | O=C(Nc1ccc(F)cc1)Nc1ccccc1N1CCCCC1 |
| 43.7 (≈ 146 µM) | CC(C(=O)Nc1ccccc1)N(C)CCOc1ccccc1 (stereo not given) |
| 5 (≈ 14.2 µM) | CCCCNC(=O)N1CCN(C(c2ccccc2)c2ccccc2)CC1 |

Reference: PubChem BioAssay AID1996
